Measurements from PMC5400565, “Real-time near-infrared fluorescence imaging using cRGD-ZW800-1 for intraoperative visualization of multiple cancer types” (Oncotarget, 2017).

Experiments:
Adenosine A2A = biological target: T1, Adenosine A2A (Homo sapiens, UniProt P29274); assay: Off-target screening (Eurofins Cerep), A2A; assay type: binding
T1 construct: Eurofins Cerep SA (contract screening)

[1] = biological target: T2, Cholecystokinin CCK1 (CCKA) (Homo sapiens, UniProt P32238); assay: Off-target screening (Eurofins Cerep), CCK1 (CCKA); assay type: binding
T2 construct: Eurofins Cerep SA (contract screening)

Endothelin ETA = biological target: T3, Endothelin ETA (Homo sapiens, UniProt P25101); assay: Off-target screening (Eurofins Cerep), ETA; assay type: binding
T3 construct: Eurofins Cerep SA (contract screening)

Histamine H2 = biological target: T4, Histamine H2 (Homo sapiens, UniProt P25021); assay: Off-target screening (Eurofins Cerep), H2; assay type: binding
T4 construct: Eurofins Cerep SA (contract screening)

Muscarinic M2 = biological target: T5, Muscarinic M2 (Homo sapiens, UniProt P08172); assay: Off-target screening (Eurofins Cerep), M2; assay type: binding
T5 construct: Eurofins Cerep SA (contract screening)

Opioid δ (DOP) = biological target: T6, Opioid δ (DOP) (Homo sapiens, UniProt P41143); assay: Off-target screening (Eurofins Cerep), δ (DOP); assay type: binding
T6 construct: Eurofins Cerep SA (contract screening)

[2] = biological target: T7, 5-hydroxytryptamine (serotonin) receptor 2B (5-HT2B) (Homo sapiens, UniProt P41595); assay: Off-target screening (Eurofins Cerep), 5-HT2B; assay type: binding
T7 construct: Eurofins Cerep SA (contract screening)
Source text: (§1) Off-target interactions are binding of tracers to other components on the cell surface than the actual target site. These non-specific interactions are often of low affinity and easily missed, but can have significant effects. We outsourced the screening for in vitro for off-target interactions of cRGD-ZW800-1 to Eurofins Cerep SA, Le bois l’Evêque, France. They assessed the percentage of inhibition of a reference compound in 44 selected targets, including G protein-coupled receptors (GPCRs), transporters, ion channels, nuclear receptors, kinases and other non-kinase enzymes. These targets were recommended by four major pharmaceutical companies. The complete list is included in Supplementary Table 1 of the Supplementary Data. Each assay was performed twice using 10 μM cRGD-ZW800-1 and a reference compound. Inhibition higher than 50% was considered to represent a significant effect of cRGD-ZW800-1. Results showing between 20% and 50% were considered weak to moderate effects, while lower than 20% was not considered significant and mostly attributable to variability of the signal around the control level.

5-HT transporter = biological target: T8, 5-HT transporter (Homo sapiens, UniProt P31645); assay: Off-target screening (Eurofins Cerep), 5-HT transporter; assay type: binding
T8 construct: Eurofins Cerep SA (contract screen)

[3] = biological target: T9, Nicotinic channels N neuronal α4β2 (Homo sapiens, UniProt P17787+P43681); assay: Off-target screening (Eurofins Cerep), N neuronal α4β2; assay type: binding
T9 construct: Eurofins Cerep SA (contract screen)

Na+ channel (site 2) = assay: Off-target screening (Eurofins Cerep), Na+ channel; assay type: binding
Source text: as §1

[4] = biological target: T10, GR (steroid nuclear receptor) (Homo sapiens, UniProt P04150); assay: Off-target screening (Eurofins Cerep), GR; assay type: binding
T10 construct: Eurofins Cerep SA (contract screen)

HT-29 cells = assay: Binding assay of cRGD-ZW800-1 on cells; assay type: cell-based, human
U-87 MG cells = assay: In vitro competition with unlabeled cRGD, U-87 MG; assay type: cell-based, human; details: 500 nM cRGD-ZW800-1 + 500 nM unlabeled cRGD (1:1), 37°C, 2 h, vs cells without unlabeled cRGD, triplicate, p = 0.02
Procedure: For in vitro competition, U-87 MG (αvβ3 and αvβ5 positive, αvβ6 negative) and HT-29 (αvβ3 negative, αvβ5 and αvβ6 positive) cells were plated in a 96-well plate at a density of ∼40,000 and ∼60,000 cells per well, respectively. Subsequently, 500 nM of cRGD-ZW800-1 was simultaneously added to the cells and incubated at 37°C for 2 h. At the same time, half of the cells were also incubated with 500 nM unlabeled (“cold”) cRGD.
Both the cells in the binding and the competition experiment were then washed twice and imaged with the Odyssey NIR scanner (LI-COR Biosciences, Lincoln, Nebraska: focus offset 3 mm; 800-nm channel). Next, cells were permeabilized with a 40/60 mixture of acetone and methanol followed by a washing step and a 5 min incubation with ToPro3 (1/2000, Invitrogen), a far red fluorescent dye (642/661nm). The wells were then washed and again imaged with the Odyssey scanner (focus offset 3 mm; 700-nm channel) to quantify the number of cells in each well. The experiments were performed in triplicate.

OSC-19 oral tumors = assay: NIR fluorescence imaging, OSC-19 oral tumors; assay type: in vivo, mice; details: orthotopic OSC-19 tongue model; 10 nmol; 4 h; Pearl; n = 2; mean ± SD
Procedure: To induce subcutaneous tumors, colorectal cancer cells (HT-29) were injected at 4 sites on the back (500,000 cells per spot). Subsequently, these colorectal tumor cells were transplanted on the colon of other mice, as described by Tseng et al.. Approximately 500,000 pancreatic tumor cells (BxPC-3) were injected into the pancreas, as previously described by Kim et al.. Approximately 40,000 oral tumor cells (OSC-19) were injected in the tongue, as previously described by van Driel et al.. Approximately 500,000 breast tumor cells (MCF-7) were injected in both sides of the mammary fat pad to induce breast cancer tumors.
All animals were imaged using a Pearl® imager (LI-COR, Lincoln, NE) and an original FLARE® prototype. Animals with HT-29 tumors were imaged at 4 and 24 h post injection; animals with BxPC-3 and OSC-19 tumors at 4 h only. Animals with MCF-7 tumors were imaged at 0.5, 1, 2, 4, 6, 8, 24 and 48 h post injection. […] TBRs were calculated by dividing the tumor signal by the background signal. […]
Mice bearing orthotopic OSC-19 tumors (n = 2) were administrated with 10 nmol cRGD-ZW800-1 and imaged at 4 h. […] In vivo TBRs were calculated by dividing the mean fluorescence signals of tumors by the mean of surrounding tissue. Ex vivo organ-to-tumor ratios were calculated by dividing the fluorescence intensity of the organ by that of the tumor.

[5] = 10 μM cRGD-ZW800-1, format H, Ag, performed twice, read-out: % Inhibition of Control Specific Binding
[6] = 10 μM, mean of 2, read-out: % of Control Specific Binding Mean
[7] = 10 μM cRGD-ZW800-1, format H, An, performed twice, read-out: % Inhibition of Control Specific Binding

T5 sequence (P08172 whole entry): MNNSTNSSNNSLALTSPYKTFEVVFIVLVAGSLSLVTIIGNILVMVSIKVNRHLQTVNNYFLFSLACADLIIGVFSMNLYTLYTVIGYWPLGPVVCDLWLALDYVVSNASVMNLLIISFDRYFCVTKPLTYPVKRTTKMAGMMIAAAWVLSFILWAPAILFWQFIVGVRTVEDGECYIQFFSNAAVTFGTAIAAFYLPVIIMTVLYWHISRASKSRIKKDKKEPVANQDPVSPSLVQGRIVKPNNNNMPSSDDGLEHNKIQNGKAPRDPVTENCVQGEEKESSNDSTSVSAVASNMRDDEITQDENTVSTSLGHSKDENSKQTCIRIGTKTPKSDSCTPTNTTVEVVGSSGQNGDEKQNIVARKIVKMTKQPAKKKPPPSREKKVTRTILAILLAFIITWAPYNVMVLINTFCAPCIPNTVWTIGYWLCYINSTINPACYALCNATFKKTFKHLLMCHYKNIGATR
T7 sequence (P41595 whole entry): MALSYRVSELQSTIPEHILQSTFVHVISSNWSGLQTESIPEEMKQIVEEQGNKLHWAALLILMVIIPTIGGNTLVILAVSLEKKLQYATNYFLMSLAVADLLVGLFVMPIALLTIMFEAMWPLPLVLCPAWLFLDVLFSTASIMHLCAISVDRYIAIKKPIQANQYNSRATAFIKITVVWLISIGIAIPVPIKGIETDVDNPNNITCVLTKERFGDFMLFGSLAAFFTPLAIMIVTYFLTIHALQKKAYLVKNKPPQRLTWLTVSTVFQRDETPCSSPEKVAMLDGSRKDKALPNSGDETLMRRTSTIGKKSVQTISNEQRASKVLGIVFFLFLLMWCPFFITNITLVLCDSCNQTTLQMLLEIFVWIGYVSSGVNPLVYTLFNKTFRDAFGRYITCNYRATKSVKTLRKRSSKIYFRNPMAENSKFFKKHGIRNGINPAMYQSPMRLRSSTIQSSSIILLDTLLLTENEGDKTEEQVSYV
T8 sequence (P31645 whole entry): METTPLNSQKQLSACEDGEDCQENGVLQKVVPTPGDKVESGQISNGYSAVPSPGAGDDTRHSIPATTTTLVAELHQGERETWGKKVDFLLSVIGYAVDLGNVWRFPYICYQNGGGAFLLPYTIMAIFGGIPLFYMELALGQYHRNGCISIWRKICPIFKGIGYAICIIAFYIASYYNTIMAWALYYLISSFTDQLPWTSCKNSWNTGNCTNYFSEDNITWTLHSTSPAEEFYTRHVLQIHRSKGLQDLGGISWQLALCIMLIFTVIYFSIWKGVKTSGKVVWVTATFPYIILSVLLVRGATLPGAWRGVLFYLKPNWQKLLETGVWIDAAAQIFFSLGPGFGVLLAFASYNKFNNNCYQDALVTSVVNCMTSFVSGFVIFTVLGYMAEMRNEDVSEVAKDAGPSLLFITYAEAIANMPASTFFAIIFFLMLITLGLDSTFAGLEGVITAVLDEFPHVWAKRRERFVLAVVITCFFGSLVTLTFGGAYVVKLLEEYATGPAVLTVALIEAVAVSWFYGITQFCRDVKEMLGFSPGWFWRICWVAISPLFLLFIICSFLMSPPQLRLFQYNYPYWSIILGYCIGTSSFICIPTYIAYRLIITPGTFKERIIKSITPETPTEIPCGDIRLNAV
T9 sequence (P43681 29-627 limits assumed): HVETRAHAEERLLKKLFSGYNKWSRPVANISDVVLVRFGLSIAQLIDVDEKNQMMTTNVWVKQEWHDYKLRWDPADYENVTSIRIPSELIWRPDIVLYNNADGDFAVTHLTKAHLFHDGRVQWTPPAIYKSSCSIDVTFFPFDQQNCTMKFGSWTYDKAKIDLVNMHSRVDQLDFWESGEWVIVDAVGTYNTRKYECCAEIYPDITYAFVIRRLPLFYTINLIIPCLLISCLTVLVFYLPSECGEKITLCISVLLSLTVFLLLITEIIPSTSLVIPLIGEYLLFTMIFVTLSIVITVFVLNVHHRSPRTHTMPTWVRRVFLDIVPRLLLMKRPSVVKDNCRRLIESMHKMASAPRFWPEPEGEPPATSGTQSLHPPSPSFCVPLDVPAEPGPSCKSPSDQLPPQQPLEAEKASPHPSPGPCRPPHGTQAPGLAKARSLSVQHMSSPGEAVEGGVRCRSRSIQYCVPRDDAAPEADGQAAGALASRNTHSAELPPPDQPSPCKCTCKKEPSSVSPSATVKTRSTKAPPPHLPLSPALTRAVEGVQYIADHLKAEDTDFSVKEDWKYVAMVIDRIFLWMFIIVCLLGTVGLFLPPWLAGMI
T9 sequence (P17787 26-502): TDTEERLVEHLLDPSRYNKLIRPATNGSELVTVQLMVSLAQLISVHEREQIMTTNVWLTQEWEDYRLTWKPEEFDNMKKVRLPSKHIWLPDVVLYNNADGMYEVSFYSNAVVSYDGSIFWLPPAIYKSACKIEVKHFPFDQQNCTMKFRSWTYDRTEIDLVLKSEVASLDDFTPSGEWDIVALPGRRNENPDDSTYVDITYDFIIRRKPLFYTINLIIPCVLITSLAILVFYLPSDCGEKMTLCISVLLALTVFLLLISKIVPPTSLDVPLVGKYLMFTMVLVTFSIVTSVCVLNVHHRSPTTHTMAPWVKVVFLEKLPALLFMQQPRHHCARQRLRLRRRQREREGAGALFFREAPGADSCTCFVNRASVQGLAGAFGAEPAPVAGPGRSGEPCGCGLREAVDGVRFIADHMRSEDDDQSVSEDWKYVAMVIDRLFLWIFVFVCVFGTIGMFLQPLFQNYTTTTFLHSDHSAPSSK
T1 sequence (P29274 whole entry): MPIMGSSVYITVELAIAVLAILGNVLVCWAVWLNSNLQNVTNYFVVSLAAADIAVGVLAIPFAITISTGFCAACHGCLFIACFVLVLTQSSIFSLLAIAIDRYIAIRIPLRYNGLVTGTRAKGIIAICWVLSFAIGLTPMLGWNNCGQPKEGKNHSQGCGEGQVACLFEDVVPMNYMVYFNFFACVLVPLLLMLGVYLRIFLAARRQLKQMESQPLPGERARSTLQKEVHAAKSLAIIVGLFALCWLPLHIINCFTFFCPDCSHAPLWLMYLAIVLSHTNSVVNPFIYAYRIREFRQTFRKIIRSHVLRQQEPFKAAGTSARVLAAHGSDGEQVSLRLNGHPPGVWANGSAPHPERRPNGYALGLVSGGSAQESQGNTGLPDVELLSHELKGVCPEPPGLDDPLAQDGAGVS
T4 sequence (P25021 whole entry): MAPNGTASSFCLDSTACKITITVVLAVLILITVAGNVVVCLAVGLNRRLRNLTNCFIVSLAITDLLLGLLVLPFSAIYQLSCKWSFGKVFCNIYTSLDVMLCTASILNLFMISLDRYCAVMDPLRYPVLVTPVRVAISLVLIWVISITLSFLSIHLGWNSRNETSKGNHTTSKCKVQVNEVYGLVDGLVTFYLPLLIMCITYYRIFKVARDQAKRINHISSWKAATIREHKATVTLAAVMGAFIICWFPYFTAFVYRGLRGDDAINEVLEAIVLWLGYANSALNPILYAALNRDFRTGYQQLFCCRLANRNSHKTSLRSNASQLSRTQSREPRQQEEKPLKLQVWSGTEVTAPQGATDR
T2 sequence (P32238 whole entry): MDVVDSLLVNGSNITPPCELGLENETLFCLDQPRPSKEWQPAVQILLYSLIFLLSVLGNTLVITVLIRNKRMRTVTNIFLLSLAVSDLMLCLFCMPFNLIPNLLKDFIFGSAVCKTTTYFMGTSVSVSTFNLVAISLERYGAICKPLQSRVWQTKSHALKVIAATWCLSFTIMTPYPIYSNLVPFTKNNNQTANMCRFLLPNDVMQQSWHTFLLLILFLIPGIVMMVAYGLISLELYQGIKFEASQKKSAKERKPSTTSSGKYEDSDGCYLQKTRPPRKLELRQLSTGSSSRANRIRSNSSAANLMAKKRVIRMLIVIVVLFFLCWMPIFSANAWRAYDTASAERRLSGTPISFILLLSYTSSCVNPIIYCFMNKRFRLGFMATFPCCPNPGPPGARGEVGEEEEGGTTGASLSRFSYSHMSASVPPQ
T6 sequence (P41143 whole entry): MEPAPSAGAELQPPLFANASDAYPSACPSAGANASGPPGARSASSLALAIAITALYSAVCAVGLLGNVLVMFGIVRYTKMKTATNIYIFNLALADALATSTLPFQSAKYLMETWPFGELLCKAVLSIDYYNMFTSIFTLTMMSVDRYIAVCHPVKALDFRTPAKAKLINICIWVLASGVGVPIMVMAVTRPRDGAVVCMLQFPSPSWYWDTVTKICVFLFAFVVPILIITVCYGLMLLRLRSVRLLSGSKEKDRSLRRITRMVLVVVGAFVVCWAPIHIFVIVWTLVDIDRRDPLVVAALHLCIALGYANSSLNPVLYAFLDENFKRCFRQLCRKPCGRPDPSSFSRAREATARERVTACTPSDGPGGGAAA
T3 sequence (P25101 21-427): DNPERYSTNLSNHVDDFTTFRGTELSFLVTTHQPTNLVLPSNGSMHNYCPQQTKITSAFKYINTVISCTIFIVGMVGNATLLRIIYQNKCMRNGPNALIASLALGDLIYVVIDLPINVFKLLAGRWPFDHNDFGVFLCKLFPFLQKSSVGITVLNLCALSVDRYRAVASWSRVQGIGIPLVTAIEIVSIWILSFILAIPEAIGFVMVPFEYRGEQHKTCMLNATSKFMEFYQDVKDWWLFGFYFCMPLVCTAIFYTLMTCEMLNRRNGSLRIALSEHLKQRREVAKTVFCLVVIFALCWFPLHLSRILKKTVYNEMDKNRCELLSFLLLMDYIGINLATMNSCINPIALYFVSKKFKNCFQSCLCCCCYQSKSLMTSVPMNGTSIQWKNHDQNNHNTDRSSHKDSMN

SMILES: CC1(C)C(/C=C/C2=C(Oc3ccc(CCC(=O)NCCCC[C@@H]4NC(=O)[C@@H](Cc5ccc(O)cc5)NC(=O)[C@H](CC(=O)O)NC(=O)CNC(=O)[C@H](CCCNC(=N)N)NC4=O)cc3)C(=C/C=C3/N(CCC[N+](C)(C)C)c4ccc(S(=O)(=O)O)cc4C3(C)C)/CCC2)=[N+](CCC[N+](C)(C)C)c2ccc(S(=O)(=O)O)cc21 [cRGD-ZW800-1]
- inhibition at 10 µM (Adenosine A2A; [5]): 8%
- remaining activity at 10 µM (Adenosine A2A; [6]): 91.9%
- inhibition at 10 µM [1, 5]: -8%
- remaining activity at 10 µM [1, 6]: 108%
- inhibition at 10 µM (Endothelin ETA; [5]): 1%
- remaining activity at 10 µM (Endothelin ETA; [6]): 98.6%
- inhibition at 10 µM (Histamine H2; read-out: % Inhibition of Control Specific Binding): -4%
- remaining activity at 10 µM (Histamine H2; read-out: % of Control Specific Binding Mean): 104%
- inhibition at 10 µM (Muscarinic M2; [7]): -20%
- remaining activity at 10 µM (Muscarinic M2; [6]): 120%
- inhibition at 10 µM (Opioid δ (DOP); [5]): 14%
- remaining activity at 10 µM (Opioid δ (DOP); [6]): 85.5%
- inhibition at 10 µM [2, 5]: 29%
- remaining activity at 10 µM [2, 6]: 70.9%
- inhibition at 10 µM (5-HT transporter; [7]): -3%
- remaining activity at 10 µM (5-HT transporter; [6]): 103%
- inhibition at 10 µM [3, 5]: -11%
- remaining activity at 10 µM [3, 6]: 111%
- % Inhibition of Control Specific Binding (Na+ channel (site 2); 10 μM cRGD-ZW800-1, format An, performed twice): 20%
- % of Control Specific Binding Mean (Na+ channel (site 2); 10 μM, mean of 2): 79.9%
- inhibition at 10 µM [4, 5]: 10%
- remaining activity at 10 µM [4, 6]: 89.9%
- fluorescence intensity with increasing concentrations (HT-29 cells; 0, 125, 250, 500, 1000 nM, 1 h, Odyssey NIR scanner 800-nm channel, triplicate): almost linear increase
- fluorescence signals at 4°C compared to 37°C (HT-29 cells; incubated at 4°C, which prevents internalization, p < 0.0001): Significantly lower signals
- reduction of fluorescence signal by unlabeled cRGD (U-87 MG cells): 36%
- mean TBR (OSC-19 oral tumors): 5.4 ± 1.1
